Data from US8288424B2, “Substituted tetrahydroimidazopyridine compounds and the use thereof in the treatment of pain and other conditions” (Gruenenthal GmbH, priority 2008, dated 2012).

Biological target: T1, KCNQ2/3 channels (Homo sapiens, UniProt O43525+O43526)
T1 construct: expressed in transfected cells; host or cells: CHO-K1
Assay: Fluorescence assay using a voltage-sensitive dye
Type: cell-based
Conditions: CHO-K1 cells expressing KCNQ2/3 channels, agonistic activity; for activation at 10 µM: 10 μmol test substance, read-out: % Stimulation [10 μmol] Average
Description: Fluorescence Assay Using a Voltage-Sensitive Dye
Human CHO-K1 cells expressing KCNQ2/3 channels are cultivated adherently at 37° C., 5% CO2 and 95% humidity in cell culture bottles (e.g. 80 cm^2 TC flasks, Nunc) with MEM Alpha Medium (1×, liquid, Invitrogen, #22571), 10% foetal calf serum (FCS) (Invitrogen, #10270-106, heat-inactivated) and the necessary selection antibiotics. Before being spread out for the measurements, the cells are washed with a 1×DPBS buffer without Ca^2+/Mg^2+ (e.g. Invitrogen, #14190-094) and detached from the bottom of the culture vessel by means of Accutase (PAA Laboratories, #L11-007) (incubation with Accutase for 15 min at 37° C.). The cell count then present is determined using a CASY™ cell counter (TCC model, Schärfe System) in order subsequently to apply 20,000 cells/well/100 μl of the described nutrient medium to 96-well measuring plates of the Corning™ CellBIND™ type (flat clear-bottom black polystyrene microplates, #3340). Incubation is then carried out for one hour at room temperature, without gassing or adjusting the humidity, followed by incubation for 24 hours at 37° C., 5% CO2 and 95% humidity.
The voltage-sensitive fluorescent dye from the Membrane Potential Assay Kit (Red bulk format part R8123 for FLIPR, Molecular Devices™) is prepared by dissolving the contents of a vessel of Membrane Potential Assay Kit Red Component A in 200 ml of extracellular buffer (ES buffer, 120 mM NaCl, 1 mM KCl, 10 mM HEPES, 2 mM CaCl2, 2 mM MgCl2, 10 mM glucose; pH 7.4). After removal of the nutrient medium, the cells are washed with 200 μl of ES buffer, then covered with a layer of 100 μl of the dye solution prepared above and incubated for 45 min at room temperature with exclusion of light.
The fluorescence measurements are carried out with a BMG Labtech FLUOstar™ or BMG Labtech POLARstar™ instrument (525 nm excitation, 560 nm emission, bottom-read mode). After incubation of the dye, 50 μl of the substances to be tested in the desired concentrations, or 50 μl of ES buffer for control purposes, are introduced into separate cavities of the measuring plate and incubated for 30 min at room temperature whilst being shielded from light. The fluorescence intensity of the dye is then measured for 5 min and the fluorescence value F1 of each well is thus determined at a given, constant time. 15 μl of a […] KCl solution ([…]) are then added to each well. The change in fluorescence is subsequently measured until all relevant measured values have been obtained (mainly 5-30 min). At a given time after KCl application, a fluorescence value F2 is determined, in this case at the time of the fluorescence peak.
For calculation, the fluorescence intensity F2 is compared with the fluorescence intensity F1, and the agonistic activity of the target compound on the potassium channel is determined therefrom. F2 and F1 are calculated as follows:
[formula] In order to determine whether a substance has an agonistic activity,
[formula] for example, can be compared with
[formula] of control cells.
[formula] is determined by adding to the reaction batch only the buffer solution instead of the substance to be tested, determining the value F1K of the fluorescence intensity, adding the potassium ions as described above and measuring a value F2K of the fluorescence intensity. Then F2K and F1K are calculated as follows:
[formula] A substance has an agonistic activity on the potassium channel when
[formula] is greater than
[formula] Independently of the comparison of
[formula] it is also possible to conclude that a target compound has an agonistic activity if an increase in
[formula] is to be observed as the dosage of the target compound increases. Calculations of EC50 and IC50 values are carried out with the aid of Prism 4 software (GraphPad Software™).

Structure (SMILES) | activation at 10 µM [%] | EC50 [µM]
Cc1cccc(C2CCc3nc(C(=O)N4CCCC4)cn3C2)c1 (stereo not shown) [Compound 29, Pyrrolidin-1-yl(6-m-tolyl-5,6,7,8-tetrahydroimidazo[1,2-a]pyridin-2-yl)methanone] | 26.2 | –
Cc1cc(C2CCc3nc(C(=O)NCC4CCCCC4)cn3C2)ccc1F (stereo not shown) [Compound 68, N-(Cyclohexylmethyl)-6-(4-fluoro-3-methylphenyl)-5,6,7,8-tetrahydroimidazo[1,2-a]pyridine-2-carboxamide] | 25.1 | –
Cc1cc(C2CCc3nc(C(=O)N4CC5(C)CC4CC(C)(C)C5)cn3C2)ccc1F (stereo not shown) [Compound 84, (6-(4-Fluoro-3-methylphenyl)-5,6,7,8-tetrahydroimidazo[1,2-a]pyridin-2-yl)(1,3,3-trimethyl-6-azabicyclo[3.2.1]octan-6-yl)methanone] | 37.9 | –
CC1CCN(C(=O)c2cn3c(n2)CCC(c2ccc(Oc4ccccc4)cc2)C3)CC1 (stereo not shown) [Compound 21, (4-Methylpiperidin-1-yl)(6-(4-phenoxyphenyl)-5,6,7,8-tetrahydroimidazo[1,2-a]pyridin-2-yl)methanone] | – | 8.4
COc1c(C)cc(C2CCc3nc(C(=O)N4CCC(Cc5ccccc5)CC4)cn3C2)cc1C (stereo not shown) [Compound 55, (4-Benzylpiperidin-1-yl)(6-(4-methoxy-3,5-dimethylphenyl)-5,6,7,8-tetrahydroimidazo-[1,2-a]pyridin-2-yl)methanone] | – | 5.42
CCCCCNC(=O)c1cn2c(n1)CCC(c1cc(C)c(OC)c(C)c1)C2 (stereo not shown) [Compound 15, 6-(4-Methoxy-3,5-dimethylphenyl)-N-pentyl-5,6,7,8-tetrahydroimidazo[1,2-a]pyridine-2-carboxamide] | 16.8 | –
O=C(c1cn2c(n1)CCC(c1ccccc1)C2)N1CCC(Cc2ccccc2)CC1 (stereo not shown) [Compound 1, (4-Benzylpiperidin-1-yl)(6-phenyl-5,6,7,8-tetrahydroimidazo[1,2-a]pyridin-2-yl)methanone] | 16.2 | –
CC1(C)CC2CC(C)(CN2C(=O)c2cn3c(n2)CCC(c2ccccc2)C3)C1 (stereo not shown) [Compound 3, (6-Phenyl-5,6,7,8-tetrahydroimidazo[1,2-a]pyridin-2-yl)(1,3,3-trimethyl-6-azabicyclo[3.2.1]octan-6-yl)methanone] | 16.7 | –
Cc1cc(C2CCc3nc(C(=O)N4CCC(c5cccc(C(F)(F)F)c5)CC4)cn3C2)ccc1F (stereo not shown) [Compound 85, (6-(4-Fluoro-3-methylphenyl)-5,6,7,8-tetrahydroimidazo[1,2-a]pyridin-2-yl)(4-(3-(trifluoromethyl)phenyl)piperidin-1-yl)methanone] | 120 | –
O=C(c1cn2c(n1)CCC(c1ccccc1)C2)N(CCc1ccccc1)Cc1ccccc1 (stereo not shown) [Compound 2, N-Benzyl-N-phenethyl-6-phenyl-5,6,7,8-tetrahydroimidazo[1,2-a]pyridine-2-carboxamide] | 20 | –
COc1ccc(F)cc1C1CCc2nc(C(=O)N3CC4(C)CC3CC(C)(C)C4)cn2C1 (stereo not shown) [Compound 9, (6-(5-Fluoro-2-methoxyphenyl)-5,6,7,8-tetrahydroimidazo[1,2-a]pyridin-2-yl)(1,3,3-trimethyl-6-azabicyclo[3.2.1]octan-6-yl)methanone] | – | 11.9
COc1cccc(C2CCc3nc(C(=O)N4CCN(c5cccc(C(F)(F)F)c5)CC4)cn3C2)c1 (stereo not shown) [Compound 71, (6-(3-Methoxyphenyl)-5,6,7,8-tetrahydroimidazo[1,2-a]pyridin-2-yl)(4-(3-(trifluoromethyl)phenyl)piperazin-1-yl)methanone] | 115 | –
O=C(c1cn2c(n1)CCC(c1cc(C(F)(F)F)cc(C(F)(F)F)c1)C2)N1CCCC1 (stereo not shown) [Compound 30, (6-(3,5-Bis(trifluoromethyl)phenyl)-5,6,7,8-tetrahydroimidazo[1,2-a]pyridin-2-yl)(pyrrolidin-1-yl)methanone] | 20.9 | –
COc1ccccc1N1CCN(C(=O)c2cn3c(n2)CCC(c2cc(C)c(OC)c(C)c2)C3)CC1 (stereo not shown) [Compound 10, (6-(4-Methoxy-3,5-dimethylphenyl)-5,6,7,8-tetrahydroimidazo[1,2-a]pyridin-2-yl)(4-(2-methoxyphenyl)piperazin-1-yl)methanone] | 15.7 | –
Cc1cccc(N2CCN(C(=O)c3cn4c(n3)CCC(c3ccc(F)c(C)c3)C4)CC2)c1 (stereo not shown) [Compound 65, (6-(4-Fluoro-3-methylphenyl)-5,6,7,8-tetrahydroimidazo[1,2-a]pyridin-2-yl)(4-(3-methylphenyl)piperazin-1-yl)methanone] | 132 | –
Cc1cccc(C2CCc3nc(C(=O)N4CCN(c5cccc(C(F)(F)F)c5)CC4)cn3C2)c1 (stereo not shown) [Compound 75, (6-m-Tolyl-5,6,7,8-tetrahydroimidazo[1,2-a]pyridin-2-yl)(4-(3-(trifluoromethyl)phenyl)piperazin-1-yl)methanone] | 127 | –
O=C(NCc1ccc2c(c1)OCO2)c1cn2c(n1)CCC(c1cc(C(F)(F)F)cc(C(F)(F)F)c1)C2 (stereo not shown) [Compound 42, N-(Benzo[d][1,3]dioxol-5-ylmethyl)-6-(3,5-bis(trifluoromethyl)phenyl)-5,6,7,8-tetrahydroimidazo[1,2-a]pyridine-2-carboxamide] | 18.1 | –
COc1c(C)cc(C2CCc3nc(C(=O)N4CCN(c5ccccc5F)CC4)cn3C2)cc1C (stereo not shown) [Compound 6, (4-(2-Fluorophenyl)piperazin-1-yl)(6-(4-methoxy-3,5-dimethylphenyl)-5,6,7,8-tetrahydroimidazo[1,2-a]pyridin-2-yl)methanone] | – | 7.4
Cc1cc(C)cc(C2CCc3nc(C(=O)N4CCN(c5cccc(C(F)(F)F)c5)CC4)cn3C2)c1 (stereo not shown) [Compound 77, (6-(3,5-Dimethylphenyl)-5,6,7,8-tetrahydroimidazo[1,2-a]pyridin-2-yl)(4-(3-(trifluoromethyl)phenyl)piperazin-1-yl)methanone] | – | 0.08
COc1ccc(F)cc1C1CCc2nc(C(=O)N3CCN(c4cccc(C(F)(F)F)c4)CC3)cn2C1 (stereo not shown) [Compound 7, (6-(5-Fluoro-2-methoxyphenyl)-5,6,7,8-tetrahydroimidazo[1,2-a]pyridin-2-yl)(4-(3-(trifluoromethyl)phenyl)piperazin-1-yl)methanone] | 30 | –
CC1(C)CC2CC(C)(CN2C(=O)c2cn3c(n2)CCC(c2cccc(F)c2)C3)C1 (stereo not shown) [Compound 4, (6-(3-Fluorophenyl)-5,6,7,8-tetrahydroimidazo[1,2-a]pyridin-2-yl)(1,3,3-trimethyl-6-azabicyclo[3.2.1]octan-6-yl)methanone] | 20.7 | –
COc1ccc(F)cc1C1CCc2nc(C(=O)N3CCC(Cc4ccccc4)CC3)cn2C1 (stereo not shown) [Compound 8, (4-Benzylpiperidin-1-yl)(6-(5-fluoro-2-methoxyphenyl)-5,6,7,8-tetrahydroimidazo[1,2-a]pyridin-2-yl)methanone] | 29.1 | –
CCC(C)NC(=O)c1cn2c(n1)CCC(c1ccc(Oc3ccccc3)cc1)C2 (stereo not shown) [Compound 18, N-sec-Butyl-6-(4-phenoxyphenyl)-5,6,7,8-tetrahydroimidazo[1,2-a]pyridine-2-carboxamide] | 18.6 | –
Cc1cc(C2CCc3nc(C(=O)N(C)C(C)CCc4cccc(C(F)(F)F)c4)cn3C2)ccc1F (stereo not shown) [Compound 87, 6-(4-Fluoro-3-methylphenyl)-N-methyl-N-(4-(3-(trifluoromethyl)phenyl)butan-2-yl)-5,6,7,8-tetrahydroimidazo[1,2-a]pyridine-2-carboxamide] | 48.4 | –
Cc1ccccc1C1CCc2nc(C(=O)N3CCN(c4cccc(C(F)(F)F)c4)CC3)cn2C1 (stereo not shown) [Compound 35, (6-o-Tolyl-5,6,7,8-tetrahydroimidazo[1,2-a]pyridin-2-yl)(4-(3-(trifluoromethyl)-phenyl)piperazin-1-yl)methanone] | 20.9 | –
